In the supplement of paper PMC10331698:
± gives the standard deviation of the averaged measurements.

Legend:
Experiment in all cases: level (log10 ratio to DMSO vehicle control); higher = higher biomarker level / cell amount than vehicle control
[1] = compound: OCC(F)(F)C(F)(F)C(F)(F)C(F)(F)C(F)(F)C(F)(F)CO [1H,1H,8H,8H-Perfluorooctane-1,8-diol] (in DMSO)
Procedure, shortened: (§1)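 After a 1 h pretreatment with test substances, BioMAP Diversity Plus human primary cell co-cultures were stimulated with cytokines or activators and incubated 24 h (MyoF 48 h; BT 72 h, or 6 d for secreted IgG). Biomarkers were quantified by ELISA, cell amount by sulforhodamine B, and PBMC viability/proliferation by Alamar Blue. Each well was expressed relative to the mean of 8 same-plate DMSO wells, log10 transformed, and blinded duplicates were averaged.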

[2] = compound: O=C(O)C(F)(F)OC(F)(F)C(F)(F)OC(F)(F)C(F)(F)OC(F)(F)C(F)(F)C(F)(F)C(F)(F)F [Perfluoro-3,6,9-trioxatridecanoic acid] (in DMSO); settings: 6700 nM
Procedure, shortened: as §1

[3] = compound: OCC(F)(F)C(F)(F)C(F)(F)C(F)F [1H,1H,5H-Perfluoropentanol] (in DMSO)
Procedure, shortened: as §1

Octafluoroadipic acid = compound: O=C(O)C(F)(F)C(F)(F)C(F)(F)C(F)(F)C(=O)O [Octafluoroadipic acid] (in DMSO)
Procedure, shortened: as §1

[4] = compound: CCOC(=O)CC(=O)C(F)(F)C(F)(F)F [Ethyl pentafluoropropionyl acetate] (in DMSO)
Procedure, shortened: as §1

[5] = compound: C[C@@H]1C[C@H]2[C@@H]3CCC4=CC(=O)C=C[C@]4(C)[C@@]3(F)[C@@H](O)C[C@]2(C)[C@@]1(O)C(=O)COP(=O)(O)O [Dexamethasone sodium phosphate] (in DMSO)
Procedure, shortened: as §1

[6] = compound: O=S(=O)(O)CCC(F)(F)C(F)(F)C(F)(F)C(F)(F)C(F)(F)C(F)(F)C(F)(F)C(F)(F)F [8:2 Fluorotelomer sulfonic acid] (in DMSO)
Procedure, shortened: as §1

Row | Test System | level (log10) ([1]; 6700 nM) | level (log10) ([1]; 20000 nM) | level (log10) ([1]; 60000 nM) | level (log10) [2] | level (log10) ([3]; 6700 nM) | level (log10) ([3]; 20000 nM) | level (log10) ([3]; 60000 nM) | level (log10) (Octafluoroadipic acid; 6700 nM) | level (log10) (Octafluoroadipic acid; 20000 nM) | level (log10) (Octafluoroadipic acid; 60000 nM) | level (log10) ([4]; 6700 nM) | level (log10) ([4]; 20000 nM) | level (log10) ([4]; 60000 nM) | level (log10) ([5]; 1500 nM) | level (log10) ([5]; 4400 nM) | level (log10) ([5]; 13000 nM) | level (log10) ([5]; 40000 nM) | level (log10) ([6]; 6700 nM) | level (log10) ([6]; 20000 nM) | level (log10) ([6]; 60000 nM)
1 | KF3CT:SRB | -0.003 | -0.004 ± 0.0085 | -0.0085 ± 0.0092 | -0.0355 ± 0.0035 | 0.003 ± 0.0028 | 0.0025 ± 0.0035 | 0.0025 ± 0.0035 | -0.0065 ± 0.005 | 0.003 ± 0.013 | 0.001 ± 0.018 | -0.002 | 0.0005 ± 0.0035 | -0.004 ± 0.0014 | -0.0025 ± 0.00071 | -0.0035 ± 0.0035 | -0.0005 ± 0.005 | 0.0055 ± 0.012 | -0.008 ± 0.0014 | -0.0145 ± 0.0021 | -0.004 ± 0.0071
2 | KF3CT:TIMP-2 | 0.0065 ± 0.042 | -0.0055 ± 0.018 | -0.006 ± 0.016 | -0.172 ± 0.037 | -0.018 ± 0.013 | 0.025 ± 0.045 | 0.0285 ± 0.029 | -0.001 ± 0.025 | -0.0015 ± 0.005 | 0.0105 ± 0.0092 | 0.004 ± 0.011 | -0.0105 ± 0.0078 | 0.0175 ± 0.0035 | -0.0095 ± 0.025 | -0.0005 ± 0.021 | -0.0025 ± 0.005 | 0.0155 ± 0.069 | -0.033 ± 0.0042 | 0.0075 ± 0.0064 | 0.0225 ± 0.0021
3 | KF3CT:uPA | 0.0085 ± 0.0078 | -0.017 ± 0.02 | -0.0115 ± 0.011 | 0.027 ± 0.0057 | 0.0035 ± 0.0092 | -0.0315 ± 0.03 | 0.0375 ± 0.005 | -0.0045 ± 0.039 | -0.0065 ± 0.028 | -0.0055 ± 0.026 | 0.01 ± 0.018 | 0.0095 ± 0.016 | -0.006 ± 0.023 | 0 ± 0.011 | 0.012 ± 0.0085 | -0.0085 ± 0.00071 | -0.006 ± 0.017 | 0.007 ± 0.0042 | 0.006 ± 0.024 | 0.012 ± 0.016
4 | MyoF:CD106/VCAM-1 | -0.0045 ± 0.0035 | 0.0105 ± 0.0021 | 0.0295 ± 0.011 | -0.212 ± 0.048 | -0.02 ± 0.0099 | -0.0005 ± 0.035 | 0.0165 ± 0.015 | -0.0235 ± 0.005 | -0.0255 ± 0.022 | -0.0085 ± 0.016 | -0.0125 ± 0.012 | -0.012 ± 0.023 | -0.0105 ± 0.021 | -0.0825 ± 0.03 | -0.046 ± 0.0057 | -0.058 ± 0.013 | -0.0655 ± 0.016 | -0.0035 ± 0.0021 | -0.0325 ± 0.016 | -0.084 ± 0.02
5 | MyoF:CXCL8/IL-8 | 0 ± 0.0085 | 0.004 ± 0.025 | 0 ± 0.034 | 0.056 ± 0.0057 | -0.018 ± 0.076 | 0.0485 ± 0.064 | 0.07 ± 0.13 | -0.0025 ± 0.00071 | 0.002 ± 0.041 | 0.0235 ± 0.046 | -0.007 ± 0.018 | -0.0025 ± 0.021 | 0.0105 ± 0.029 | -0.0725 ± 0.011 | -0.074 ± 0.013 | -0.1 ± 0.011 | -0.104 ± 0.0057 | -0.0085 ± 0.03 | -0.0885 ± 0.046 | -0.157 ± 0.016
6 | MyoF:Collagen I | -0.0045 ± 0.025 | -0.0165 ± 0.013 | -0.0145 ± 0.0035 | -0.598 ± 0.0057 | -0.003 ± 0.0057 | 0.021 ± 0.041 | 0.0305 ± 0.052 | -0.0165 ± 0.018 | -0.021 ± 0.021 | -0.005 ± 0.0042 | -0.0085 ± 0.026 | -0.0155 ± 0.036 | -0.014 ± 0.041 | 0.032 ± 0.021 | 0.032 ± 0.0057 | 0.006 ± 0.0071 | 0.027 ± 0.0042 | 0.004 ± 0.0042 | -0.0265 ± 0.026 | -0.024 ± 0.0071
7 | MyoF:Collagen III | -0.008 ± 0.013 | -0.016 | -0.005 ± 0.0028 | -0.894 ± 0.12 | -0.0005 ± 0.0092 | 0.0295 ± 0.015 | 0.037 ± 0.045 | -0.002 ± 0.021 | -0.0085 ± 0.028 | -0.0015 ± 0.035 | -0.0045 ± 0.016 | -0.0045 ± 0.011 | -0.009 ± 0.0042 | 0.0055 ± 0.021 | 0.0255 ± 0.035 | 0.0185 ± 0.021 | 0.028 ± 0.018 | -0.008 ± 0.017 | -0.04 ± 0.031 | -0.0355 ± 0.023
8 | MyoF:Collagen IV | -0.014 ± 0.0057 | -0.0115 ± 0.005 | -0.011 ± 0.042 | 0.412 ± 0.089 | -0.001 ± 0.0014 | -0.0005 ± 0.0064 | 0.0095 ± 0.00071 | -0.0175 ± 0.0064 | -0.016 ± 0.016 | 0.002 ± 0.021 | 0.0045 ± 0.018 | 0.01 ± 0.0028 | 0.0045 ± 0.018 | -0.007 ± 0.021 | 0.011 ± 0.041 | 0.0005 ± 0.037 | 0.0195 ± 0.011 | -0.0215 ± 0.019 | -0.0335 ± 0.036 | 0.005 ± 0.0099
9 | MyoF:Decorin | -0.006 ± 0.0085 | 0.0195 ± 0.013 | 0.0325 ± 0.016 | 0.033 ± 0.037 | 0 ± 0.089 | 0.029 ± 0.12 | 0.0455 ± 0.15 | 0.0005 ± 0.011 | -0.0055 ± 0.019 | -0.001 ± 0.013 | -0.0135 ± 0.026 | -0.0025 ± 0.016 | 0.023 ± 0.014 | 0.016 ± 0.011 | 0.0385 ± 0.012 | 0.034 ± 0.033 | 0.039 ± 0.042 | 0.0555 ± 0.029 | 0.024 ± 0.03 | -0.001 ± 0.0014
10 | MyoF:MMP-1 | -0.02 ± 0.031 | -0.0145 ± 0.022 | 0.028 ± 0.12 | 0.0205 ± 0.029 | -0.054 ± 0.028 | -0.01 ± 0.052 | 0.093 ± 0.13 | -0.013 ± 0.025 | -0.0175 ± 0.0035 | 0.0125 ± 0.03 | -0.0245 ± 0.03 | -0.0125 ± 0.011 | 0.034 ± 0.058 | 0.004 ± 0.031 | 0.005 ± 0.0014 | -0.0315 ± 0.013 | -0.0125 ± 0.005 | -0.0245 ± 0.043 | -0.0365 ± 0.028 | 0.0175 ± 0.005
11 | MyoF:PAI-I | -0.0015 ± 0.0064 | -0.004 ± 0.0028 | 0.0005 ± 0.011 | -0.0885 ± 0.046 | -0.0265 ± 0.0078 | -0.018 ± 0.031 | -0.0045 ± 0.0021 | -0.012 ± 0.0099 | -0.01 ± 0.017 | 0.001 ± 0.0085 | -0.0005 ± 0.021 | 0.006 ± 0.017 | 0.0055 ± 0.015 | 0.0185 ± 0.0078 | 0.0085 ± 0.015 | 0.005 ± 0.0028 | 0.0085 ± 0.012 | -0.008 ± 0.011 | -0.009 ± 0.0042 | 0.0185 ± 0.019
12 | MyoF:SRB | -0.0095 ± 0.012 | -0.0145 ± 0.0064 | -0.0305 ± 0.0021 | -0.0815 ± 0.0064 | -0.0025 ± 0.0078 | -0.004 ± 0.016 | 0.002 ± 0.0071 | -0.0105 ± 0.0064 | -0.005 ± 0.013 | -0.0015 ± 0.00071 | -0.001 ± 0.0028 | -0.0065 ± 0.00071 | -0.0045 ± 0.00071 | -0.01 ± 0.0099 | -0.0105 ± 0.0035 | -0.0135 ± 0.0092 | -0.0105 ± 0.00071 | -0.0005 ± 0.0021 | -0.009 ± 0.0014 | -0.0035 ± 0.0035
13 | MyoF:TIMP-1 | -0.0125 ± 0.042 | 0.0285 ± 0.042 | 0.0735 ± 0.035 | -0.112 ± 0.0085 | 0.0015 ± 0.026 | 0.004 ± 0.054 | 0.039 ± 0.027 | -0.0155 ± 0.026 | -0.02 ± 0.025 | -0.0485 ± 0.019 | -0.005 ± 0.023 | -0.012 ± 0.023 | 0.0125 ± 0.022 | -0.0965 ± 0.047 | -0.0915 ± 0.067 | -0.135 ± 0.11 | -0.12 ± 0.11 | -0.0185 ± 0.0035 | 0.0095 ± 0.021 | -0.008 ± 0.018
